Reference: PMC11311138, “Design of Promising Thiazoloindazole-Based Acetylcholinesterase Inhibitors Guided by Molecular Docking and Experimental Insights” (ACS Chemical Neuroscience, 2024)

Assays:
[1] = target: Electrophorus electricus AChE (eeAChE) (Electrophorus electricus, UniProt O42275); experiment: biochemical; assay type: biochemical; conditions: pH 8, 37 °C, triplicate
equine serum BuChE = equine serum BuChE (Equus caballus, UniProt P81908); experiment: biochemical; conditions: pH 8, 37 °C, triplicate
equine serum BuChE, sequence (P81908 whole entry): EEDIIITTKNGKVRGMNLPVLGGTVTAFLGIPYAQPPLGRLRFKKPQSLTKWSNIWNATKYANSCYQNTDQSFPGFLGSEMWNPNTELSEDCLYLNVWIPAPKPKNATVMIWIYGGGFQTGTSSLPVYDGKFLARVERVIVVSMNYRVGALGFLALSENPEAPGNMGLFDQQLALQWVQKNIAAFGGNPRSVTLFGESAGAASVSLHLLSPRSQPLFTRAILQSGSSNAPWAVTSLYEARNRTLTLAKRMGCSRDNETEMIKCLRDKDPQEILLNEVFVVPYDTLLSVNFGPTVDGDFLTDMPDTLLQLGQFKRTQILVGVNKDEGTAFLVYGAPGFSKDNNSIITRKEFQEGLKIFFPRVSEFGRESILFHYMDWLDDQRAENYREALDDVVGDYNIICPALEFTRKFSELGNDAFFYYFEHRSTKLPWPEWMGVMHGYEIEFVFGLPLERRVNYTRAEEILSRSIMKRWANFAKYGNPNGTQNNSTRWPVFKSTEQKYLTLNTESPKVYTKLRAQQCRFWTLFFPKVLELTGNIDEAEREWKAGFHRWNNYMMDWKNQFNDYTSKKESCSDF

Electrophorus electricus AChE (eeAChE), sequence (O42275 24-633): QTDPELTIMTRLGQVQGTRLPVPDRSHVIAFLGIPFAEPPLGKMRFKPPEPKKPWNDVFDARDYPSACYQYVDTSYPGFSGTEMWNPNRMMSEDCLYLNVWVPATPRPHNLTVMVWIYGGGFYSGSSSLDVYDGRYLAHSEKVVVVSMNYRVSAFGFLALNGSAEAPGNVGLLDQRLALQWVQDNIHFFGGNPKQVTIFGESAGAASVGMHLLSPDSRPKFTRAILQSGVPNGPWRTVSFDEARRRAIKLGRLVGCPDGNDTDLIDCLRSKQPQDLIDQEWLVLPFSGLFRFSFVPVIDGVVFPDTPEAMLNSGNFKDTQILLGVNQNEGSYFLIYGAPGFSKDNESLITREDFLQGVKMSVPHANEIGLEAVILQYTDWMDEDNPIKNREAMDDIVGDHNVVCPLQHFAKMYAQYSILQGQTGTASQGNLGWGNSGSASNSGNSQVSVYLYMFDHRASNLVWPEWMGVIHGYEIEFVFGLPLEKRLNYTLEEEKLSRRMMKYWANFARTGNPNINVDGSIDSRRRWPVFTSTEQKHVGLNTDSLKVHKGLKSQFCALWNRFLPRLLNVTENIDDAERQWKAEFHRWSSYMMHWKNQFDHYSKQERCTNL

With `Cn1ncc2c3sc(NC(=O)CN=[N+]=[N-])nc3ccc21` [7a, 2-Azido-N-(6-methyl-6H-thiazolo[5,4-e]indazol-2-yl)acetamide] the IC50 [1] was > 50 µM and the IC50 (equine serum BuChE) was > 50 µM.
`CCn1ncc2c3sc(NC(=O)CN=[N+]=[N-])nc3ccc21` [7b, 2-Azido-N-(6-ethyl-6H-thiazolo[5,4-e]indazol-2-yl)acetamide] was tested, and the IC50 [1] was 0.54 ± 0.11 µM and the IC50 (equine serum BuChE) was > 50 µM.
In the case of `CCn1ncc2c3sc(N)nc3ccc21` [5b, 6-Ethyl-6H-thiazolo[5,4-e]indazol-2-amine], the IC50 [1] is reported as > 50 µM and the IC50 (equine serum BuChE) is reported as > 50 µM.
In the case of `CCn1ncc2c3sc(NC(=O)Cn4c5ccccc5c5ccccc54)nc3ccc21` [TI58b, 2-(9H-carbazol-9-yl)-N-(6-ethyl-6H-thiazolo[5,4-e]indazol-2-yl)acetamide], the “AChE IC50” value [1] is reported as “did not experimentally show any activity against AChE”, the IC50 [1] is reported as > 50 µM and the IC50 (equine serum BuChE) is reported as > 50 µM.
`Cn1nc(Cl)c2c3sc(NC(=O)Cn4c5ccccc5c5ccccc54)nc3ccc21` [TI58c, 2-(9H-carbazol-9-yl)-N-(8-chloro-6-methyl-6H-thiazolo[5,4-e]indazol-2-yl)acetamide] was tested, and the IC50 [1] was > 50 µM and the IC50 (equine serum BuChE) was > 50 µM.
With `Cn1ncc2c3sc(NC(=O)Cn4cc(-c5cc(C(F)(F)F)cc(C(F)(F)F)c5)nn4)nc3ccc21` [TI45a, 2-(4-(3,5-bis(Trifluoromethyl)phenyl)-1H-1,2,3-triazol-1-yl)-N-(6-methyl-6H-thiazolo[5,4-e]indazol-2-yl)acetamide] the IC50 [1] was > 50 µM and the IC50 (equine serum BuChE) was > 50 µM.
For `Cn1ncc2c3sc(N)nc3ccc21` [5a, 6-Methyl-6H-thiazolo[5,4-e]indazol-2-amine], the IC50 [1] was > 50 µM and the IC50 (equine serum BuChE) was > 50 µM.
With `Cn1nc(Cl)c2c3sc(N)nc3ccc21` [5e, 8-Chloro-6-methyl-6H-thiazolo[5,4-e]indazol-2-amine] the IC50 [1] was > 50 µM and the IC50 (equine serum BuChE) was > 50 µM.
With `Cn1nc(Cl)c2c3sc(NC(=O)Cn4cc(-c5cc(C(F)(F)F)cc(C(F)(F)F)c5)nn4)nc3ccc21` [TI45c, 2-(4-(3,5-bis(Trifluoromethyl)phenyl)-1H-1,2,3-triazol-1-yl)-N-(8-chloro-6-methyl-6H-thiazolo[5,4-e]indazol-2-yl)acetamide] the IC50 [1] was > 50 µM and the IC50 (equine serum BuChE) was > 50 µM.
With `CCn1ncc2ccc3nc(N)sc3c21` [5d, 1-Ethyl-1H-thiazolo[4,5-g]indazol-7-amine] the IC50 [1] was > 50 µM and the IC50 (equine serum BuChE) was > 50 µM.
In the case of `CCn1ncc2c3sc(NC(=O)CCl)nc3ccc21` [6b, 2-Chloro-N-(6-ethyl-6H-thiazolo[5,4-e]indazol-2-yl)acetamide], the IC50 [1] is reported as 13.2 ± 2.71 µM and the IC50 (equine serum BuChE) is reported as > 50 µM.
In the case of `Cn1ncc2c3sc(NC(=O)CCl)nc3ccc21` [6a, 2-Chloro-N-(6-methyl-6H-thiazolo[5,4-e]indazol-2-yl)acetamide], the IC50 [1] is reported as 14.3 ± 2.62 µM and the IC50 (equine serum BuChE) is reported as > 50 µM.
For `Cn1nc(Cl)c2c3sc(NC(=O)CN=[N+]=[N-])nc3ccc21` [7c, 2-Azido-N-(8-chloro-6-methyl-6H-thiazolo[5,4-e]indazol-2-yl)acetamide], the IC50 [1] was 2.26 ± 0.09 µM and the IC50 (equine serum BuChE) was > 50 µM.
`Cn1nc(Cl)c2c3sc(NC(=O)CCl)nc3ccc21` [6c, 2-Chloro-N-(8-chloro-6-methyl-6H-thiazolo[5,4-e]indazol-2-yl)acetamide] was tested, and the IC50 [1] was > 25 µM and the IC50 (equine serum BuChE) was > 50 µM.
`Cn1ncc2c3sc(NC(=O)Cn4c5ccccc5c5ccccc54)nc3ccc21` [TI58a, 2-(9H-carbazol-9-yl)-N-(6-methyl-6H-thiazolo[5,4-e]indazol-2-yl)acetamide] was tested, and the IC50 [1] was > 50 µM and the IC50 (equine serum BuChE) was > 50 µM.
`Cn1ncc2ccc3nc(N)sc3c21` [5c, 1-Methyl-1H-thiazolo[4,5-g]indazol-7-amine] was tested, and the IC50 [1] was > 50 µM and the IC50 (equine serum BuChE) was > 50 µM.
In the case of `CCn1ncc2c3sc(NC(=O)Cn4cc(-c5cc(C(F)(F)F)cc(C(F)(F)F)c5)nn4)nc3ccc21` [TI45b, 2-(4-(3,5-bis(Trifluoromethyl)phenyl)-1H-1,2,3-triazol-1-yl)-N-(6-ethyl-6H-thiazolo[5,4-e]indazol-2-yl)acetamide], the IC50 [1] is reported as 0.071 ± 0.014 µM and the IC50 (equine serum BuChE) is reported as > 50 µM.
